Source: paper PMC10799935, “Discovery of a peripheral 5HT2A antagonist as a clinical candidate for metabolic dysfunction-associated steatohepatitis” (Nature Communications, 2024)
Where “and” joins values, the source holds several entries; their conditions need not be identical. Equal entries are not always repeated.

What was measured:
[1] = system: HFD-fed C57BL/6J mice; assay: DIO mice: liver histology (H&E), NAFLD activity score (steatosis, inflammation, ballooning); type: in vivo, mouse; parameters: key to Steatosis (NAFLD Activity Score), individual animals / Steatosis score, group mean: steatosis score 0-3 (0 <5% to 3 >66% fat accumulation); details: for Ballooning (NAFLD Activity Score), individual animals / Inflammation (NAFLD Activity Score), individual animals / Steatosis (NAFLD Activity Score), individual animals / Total Activity (Total NAFLD Activity Score), individual animals: DIO C57BL/6J mice, one value per animal; for Hepatocyte ballooning score, Mean Diff. (Vehicle vs. treated): Dunnett's multiple comparisons test
Text: Epididymal, inguinal, and liver were harvested, fixed in 10% (w/v) neutral buffered formalin solution (Sigma-Aldrich), and embedded in paraffin. Five-micron-thick tissue sections were deparaffinized, rehydrated, and stained with hematoxylin and eosin (H&E)[10]. The total NAFLD activity score (NAS) is a widely used measure of grading for steatosis, lobular inflammation, and ballooning. The total NAS ranges from 0-8 and is the sum of unweighted scores for steatosis (0: <5%, 1: 5 ~ 33%, 2: 33 ~ 66%, 3: >66% fat accumulation in the liver), lobular inflammation (0: no foci inflammation in x200 field, 1: <2 foci inflammation, 2: 2 ~ 4 foci inflammation, 3: >4 foci inflammation), and hepatocellular ballooning (0: none, 1: few ballooning cells, 2: prominent ballooning cells). MASH was diagnosed when NAS was >5, while non-MASH was diagnosed when NAS was <4. According to the MASH CRN scoring system, a certified pathologist determined the NAS[39]. The histological scoring was performed blindly, without knowledge of any other information.

[2] = system: HFD-fed C57BL/6J mice; assay: DIO mice: blood profiling (serum cholesterol, triglyceride); type: in vivo, mouse; details: PO; for Blood Biochemistry CHO, individual animals / Blood Biochemistry TG, individual animals: DIO C57BL/6J mice, one value per animal; for Blood Biochemistry CHO, individual animals: serum total cholesterol; for Blood Biochemistry TG, individual animals: serum; for Serum TG levels, group mean / Serum total cholesterol levels (CHO), group mean: DIO mice
Protocol: Blood samples were obtained by cardiac puncture, and plasma was isolated. Blood profiling was performed by GC Pharma (Green Cross Corporation). Plasma TG and cholesterol were detected with an in vitro enzymatic colorimetric assay (CHOL2 and TRIGL; Roche, Germany) using a Cobas 8000 clinical analyzer with a c702 module (Roche).

[3] = system: HFD-fed C57BL/6J mice; assay: DIO mice: quantification of hepatic triglyceride; type: in vivo, mouse; details: PO, liver; for Hepatic TG Levels, TG, individual animals / Hepatic TG Levels, TG per protein, individual animals: DIO C57BL/6J mice, one value per animal; for Hepatic TG Levels, TG, individual animals / Hepatic TG Levels, TG, group mean: not normalised; for Hepatic TG Levels, TG per protein, group mean / Hepatic TG Levels, TG, group mean: DIO mice
Protocol: Liver tissues were homogenized in 5% NP-40 using FastPrep-24. To solubilize fat, the homogenates were heated to 95 °C for 5 min and cooled at 23 °C, and repeated. Triglyceride Reagent (Sigma-Aldrich) or DW was added and incubated at 37 °C for 30 min to hydrolyze TG into glycerol. For the colorimetric assay of hydrolyzed TG levels, samples were incubated with Free Glycerol Reagent (Sigma-Aldrich) at 37 °C for 5 min. Differences in absorbance at 540 nm between hydrolyzed or non-hydrolyzed TG were quantified using a glycerol standard (Sigma-Aldrich). […]

[4] = system: lipogenesis-related genes; assay: DIO mice: qRT-PCR of lipogenesis-related genes in liver; type: in vivo, mouse; details: DIO, PO, fold vs vehicle; for Fasn (Fold), Mean / Htr2a (Fold), Mean / Pparg (Fold), Mean / Srebp1c (Fold), Mean: group mean; for Fasn (Fold) / Htr2a (Fold) / Pparg (Fold) / Srebp1c (Fold): individual mouse
Protocol: Total RNA extractions from harvested tissues were performed using TRIzol according to the manufacturer’s protocol. After TURBO DNase (Invitrogen) treatment, 2 μg of total RNA was used to generate complementary DNA with a High-Capacity cDNA Reverse Transcription Kit (Thermo Fisher Scientific). Quantitative RT-PCR was performed with Fast SYBR Green Master Mix (Thermo Fisher Scientific) and a Viia 7 Real-time PCR System (Thermo Fisher Scientific) according to the manufacturer’s instructions. Gene expression was relatively quantified based on the delta-delta Ct (threshold cycle) method with the beta-actin gene as a reference gene. The sequence of primers can be found in the Supporting Information (Supplementary Table 2).

[5] = target: 5HT2A (Homo sapiens, UniProt P28223); assay: Human 5HT2A inhibition assay (FLIPR calcium 6, 5HT stimulus, stably transfected HEK293 cells); type: cell-based; parameters: expressed in transfected cells; host or cells: HEK293; details: for inhibition at 1 µM: HEK293, 1 μM, read-out: % Inhibition at 1 μM (SD)
Protocol: The derivatives were evaluated at a concentration of 1 μM for their antagonist activity on the 5HT2A receptor (Tables 1–3)[33],[34]. […] The cells were stained with 100 μL of cytosolic calcium dye using the FLIPR calcium 6 assay solution (Molecular devices, #R8190) supplemented with 2.5 mM probenecid (Sigma; P8761) and incubated for 1 h at 37 °C. After 1 h, the designated amount of the compound was treated in each well and incubated for another 1 h at 37 °C. […] Experimental conditions for the 5HT subtypes can be found in the Supporting Information (Supplementary Table 1).

[6] = DIO mice, PO, 10mpk, mean, 10 mg/kg

Sequence of 5HT2A (P28223 whole entry): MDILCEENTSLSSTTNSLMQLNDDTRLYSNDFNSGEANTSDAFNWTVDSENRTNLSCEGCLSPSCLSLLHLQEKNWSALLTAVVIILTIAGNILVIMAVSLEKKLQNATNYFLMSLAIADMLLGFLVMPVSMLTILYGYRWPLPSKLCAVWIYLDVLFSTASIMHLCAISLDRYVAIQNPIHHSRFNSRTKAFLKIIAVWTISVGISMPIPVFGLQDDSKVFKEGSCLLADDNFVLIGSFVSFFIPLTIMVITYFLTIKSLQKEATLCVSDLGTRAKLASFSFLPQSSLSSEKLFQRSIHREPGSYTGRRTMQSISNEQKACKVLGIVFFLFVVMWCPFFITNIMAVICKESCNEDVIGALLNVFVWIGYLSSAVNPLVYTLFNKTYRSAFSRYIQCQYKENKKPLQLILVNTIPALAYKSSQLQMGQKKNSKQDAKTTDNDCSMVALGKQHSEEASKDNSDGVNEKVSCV

## Cc1nc2n(c(=O)c1CCN1CCC(=C3c4ccc(Cl)cc4CCc4cccnc43)CC1)CCCC2O (racemic) [GM106]
[1]; PO, 5mpk, 5 mg/kg
  Ballooning (NAFLD Activity Score), individual animals: 2.00 and 1.00 and 0.00
  Inflammation (NAFLD Activity Score), individual animals: 2.00 and 1.00
  Steatosis (NAFLD Activity Score), individual animals: 3.00 and 2.00 and 1.00
  Total Activity (Total NAFLD Activity Score), individual animals: 7.00 and 5.00 and 3.00 and 6.00 and 2.00 and 4.00
[1]; PO, 10mpk, 10 mg/kg
  Ballooning (NAFLD Activity Score), individual animals: 0.00 and 1.00 and 2.00
  Inflammation (NAFLD Activity Score), individual animals: 1.00 and 2.00 and 0.00
  Steatosis (NAFLD Activity Score), individual animals: 0.00 and 1.00
  Total Activity (Total NAFLD Activity Score), individual animals: 1.00 and 3.00 and 5.00 and 0.00
[1]; DIO mice, 5mpk
  Hepatocyte ballooning score, Mean Diff. (Vehicle vs. treated): 0.2857
[1]; DIO mice, 10mpk
  Hepatocyte ballooning score, Mean Diff. (Vehicle vs. treated): 1
[1]; DIO mice, PO, 5mpk, mean, 5 mg/kg
  Steatosis score, group mean: 2.0
[1]; DIO mice, PO, 10mpk, mean
  Steatosis score, group mean: 0.5
[1]; [6]
  Hepatocyte ballooning score, group mean: 1
  Lobular inflammation score, group mean: 1.0
[2]; 5mpk, 5 mg/kg
  Blood Biochemistry CHO, individual animals: 245.45 mg/dL and 237.41 mg/dL and 246.17 mg/dL and 215.59 mg/dL and 143.17 mg/dL and 210.2 mg/dL and 246.37 mg/dL
  Blood Biochemistry TG, individual animals: 80.27 mg/dL and 61.12 mg/dL and 86.84 mg/dL and 48.55 mg/dL and 85.94 mg/dL and 70.5 mg/dL and 70.39 mg/dL
  Serum total cholesterol levels (CHO), group mean: 220.62 mg/dL
[2]; 10mpk, 10 mg/kg
  Blood Biochemistry CHO, individual animals: 190.51 mg/dL and 195.99 mg/dL and 228.58 mg/dL and 208.99 mg/dL and 197.21 mg/dL and 184.2 mg/dL
  Blood Biochemistry TG, individual animals: 45.42 mg/dL and 58.97 mg/dL and 70.76 mg/dL and 76.11 mg/dL and 81.65 mg/dL and 74.22 mg/dL
  Serum total cholesterol levels (CHO), group mean: 200.91 mg/dL
[2]; 5mpk
  Serum TG levels, group mean: 71.94 mg/dL
[2]; 10mpk
  Serum TG levels, group mean: 67.86 mg/dL
[3]; 5mpk, 5 mg/kg
  Hepatic TG Levels, TG, individual animals: 0.07575 mg/mL and 0.09502 mg/mL and 0.09001 mg/mL and 0.07002 mg/mL and 0.1053 mg/mL and 0.1094 mg/mL and 0.1015 mg/mL
  Hepatic TG Levels, TG per protein, individual animals: 71.5854 mg/g protein and 74.7025 mg/g protein and 51.6625 mg/g protein and 103.84 mg/g protein and 123.461 mg/g protein and 75.9936 mg/g protein and 58.3099 mg/g protein
[3]; 10mpk, 10 mg/kg
  Hepatic TG Levels, TG, individual animals: 0.06336 mg/mL and 0.0751 mg/mL and 0.08726 mg/mL and 0.101 mg/mL and 0.08773 mg/mL and 0.06215 mg/mL
  Hepatic TG Levels, TG per protein, individual animals: 41.8429 mg/g protein and 54.7941 mg/g protein and 65.6095 mg/g protein and 56.3849 mg/g protein and 74.0866 mg/g protein and 34.3504 mg/g protein
[3]; 5mpk
  Hepatic TG Levels, TG per protein, group mean: 79.94 mg/g protein
  Hepatic TG Levels, TG, group mean: 0.09 mg/mL
[3]; 10mpk
  Hepatic TG Levels, TG per protein, group mean: 54.51 mg/g protein
  Hepatic TG Levels, TG, group mean: 0.08 mg/mL
[4]; 5mpk, 7 mice
  Fasn (Fold), Mean: 0.745
  Htr2a (Fold), Mean: 0.510
  Pparg (Fold), Mean: 0.893
  Srebp1c (Fold), Mean: 0.768
[4]; 5mpk, 5 mg/kg
  Fasn (Fold): 0.6490 and 1.2211 and 0.8546 and 0.7608 and 0.3082 and 0.7010 and 0.7176
  Htr2a (Fold): 0.4721 and 0.7255 and 0.4948 and 0.4297 and 0.7599 and 0.2475 and 0.4420
  Pparg (Fold): 0.9158 and 1.2274 and 0.7611 and 0.5677 and 1.3805 and 0.7174 and 0.6847
  Srebp1c (Fold): 0.9242 and 0.7728 and 0.8708 and 0.7607 and 0.6589 and 0.3460 and 1.0400
[4]; 10mpk, 6 mice
  Fasn (Fold), Mean: 0.560
  Htr2a (Fold), Mean: 0.414
  Pparg (Fold), Mean: 1.032
  Srebp1c (Fold), Mean: 0.496
[4]; 10mpk, 10 mg/kg
  Fasn (Fold): 0.3894 and 0.5870 and 0.6740 and 0.7101 and 0.3290 and 0.6694
  Htr2a (Fold): 0.4677 and 0.2891 and 0.2762 and 0.4976 and 0.4041 and 0.5480
  Pparg (Fold): 0.7506 and 1.1267 and 1.0050 and 0.9956 and 1.2727 and 1.0412
  Srebp1c (Fold): 0.4795 and 0.5418 and 0.5388 and 0.5056 and 0.4290 and 0.4815

## Cc1nc2n(c(=O)c1CCN1CCC(=C3c4ccc(Cl)cc4CCc4cccnc43)CC1)CCC[C@@H]2O (single isomer, unassigned) [22 f]
[5]
  % Inhibition at 1 μM (SD): 96.07 ± 1.87%

## Cc1nc2n(c(=O)c1CCN1CCC(=C3c4ccc(Cl)cc4CCc4cccnc43)CC1)CCC[C@H]2O (single isomer, unassigned) [22 g]
[5]
  % Inhibition at 1 μM (SD): 97.17 ± 7.11%

## Cc1nc2n(c(=O)c1CCN1CCC(=C3c4ccc(Cl)cc4CCc4cccnc43)CC1)CCC[C@@H]2O (single isomer, unassigned) [Compound 22 f]
[5]
  IC50: 10.6 nM

## Cc1nc2n(c(=O)c1CCN1CCC(=C3c4ccc(Cl)cc4CCc4cccnc43)CC1)CCC[C@H]2O (single isomer, unassigned) [Compound 22 g]
[5]
  IC50: 11.1 nM

## O=C(CN1CCC(=C2c3ccc(Cl)cc3CCc3cccnc32)CC1)c1ccc(Br)cc1 [Compound 8a]
[5]
  IC50: 81.4 nM
  inhibition at 1 µM: 83.2 ± 1.98%

## O=C1Cc2cc(C(=O)CN3CCC(=C4c5ccc(Cl)cc5CCc5cccnc54)CC3)ccc2N1 [Compound 8b]
[5]
  % Inhibition at 1 μM (SD): 68.34 ± 2.78%
  inhibition at 1 µM: 68%

## O=C1Cc2cc(C(=O)CN3CCC(=C4c5ccc(Cl)cc5CCc5cccnc54)CC3)c(Cl)cc2N1 [Compound 8c]
[5]
  % Inhibition at 1 μM (SD): 73.02 ± 0.51%
  inhibition at 1 µM: 73%

## OC(CN1CCC(=C2c3ccc(Cl)cc3CCc3cccnc32)CC1)c1ccc(Br)cc1 (stereo not drawn) [Compound 9a]
[5]
  IC50: 31.9 nM
  inhibition at 1 µM: 92 ± 1.07%

## O=C1Cc2cc(C(O)CN3CCC(=C4c5ccc(Cl)cc5CCc5cccnc54)CC3)ccc2N1 (stereo not drawn) [Compound 9b]
[5]
  IC50: 21.4 nM
  inhibition at 1 µM: 92.2 ± 1.59%

## O=C1Cc2cc(C(O)CN3CCC(=C4c5ccc(Cl)cc5CCc5cccnc54)CC3)c(Cl)cc2N1 (stereo not drawn) [Compound 9c]
[5]
  IC50: 22.2 nM
  inhibition at 1 µM: 93.8 ± 3.13%

## O=C1Cc2cc(CCN3CCC(=C4c5ccc(Cl)cc5CCc5cccnc54)CC3)c(Cl)cc2N1 [Compound 11a]
[5]
  % Inhibition at 1 μM (SD): 94.47 ± 1.53%

## Cc1nc2n(c(=O)c1CCN1CCC(=C3c4ccccc4CCc4cccnc43)CC1)CCCC2O (stereo not drawn) [Compound 11e]
[5]
  IC50: 61 nM
  IC50 (nM): less potency than compound 11c
  inhibition at 1 µM: 89.2 ± 11%
